Assay results from US20230024304A1, “A MULTICOMPONENT COMPOSITION COMPRISING A COLLAGEN, RESVERATROL AND ASTAXANTHIN AND THE USE THEREOF FOR THE TREATMENT OF TENDINOPATHIES” (KOLINPHARMA S.P.A., priority 2019, published 2023).

Columns and labels:
primary human tenocytes = assay: MTT cytotoxicity test on healthy tenocytes (individual substances and their combination); type: cell-based; settings: 24 hours
Description: The model is based on the use of primary human tenocytes, obtained through isolation from Achilles tendon, purchased from Zen-Bio (TEN-F), cultured and used according to the supplier's instructions. […] Preliminary cytotoxicity studies (i.e. MTT test (3-(4,5-dimethylthiazol-2-yl)-2,5-diphenyltetrazolium bromide) and the subsequent statistical analysis) were conducted on healthy tenocytes treated with the individual substances in order to identify the doses to be used for subsequent experiments, as well as the doses to be mixed to analyse synergism. Cells were seeded in 48 well multiwells, at a density of 6000 cells/well. After 48 ore, they were treated with different concentrations of vitamin C (from 0.88 μg/mL to 352 μg/mL), collagen peptides (from 100 μg/mL to 3000 μg/mL), astaxanthin (from 1 μg/mL to 1000 μg/mL) or resveratrol (from 0.1 μg/mL to 100 μg/mL) for 24 hours. The range of concentrations selected for each substance was determined based on the data reported in literature. The MTT test was conducted at the end of the treatment. […] The formazan deposits in the cells were then solubilised with isopropanol, obtaining a homogeneous solution whose absorbance can thus be measured at the spectrophotometer (absorbance at 510 nm). […]

NF-kB and PI-3K = settings: human tenocytes; dose and time-dependent manner; cited from earlier work

| Structure (SMILES) | toxicity / cell viability (MTT test) (primary human tenocytes; at the tested doses (collagen 100-3000 μg/mL, astaxanthin 1-1000 μg/mL), results not reported in detail) | IL-1β-induced activation of NF-kB and PI-3K (NF-kB and PI-3K) | effect on cell viability (MTT test) (primary human tenocytes; resveratrol 50 and 100 μg/ml) |
| --- | --- | --- | --- |
| CC1=C(/C=C/C(C)=C/C=C/C(C)=C/C=C/C=C(C)/C=C/C=C(C)/C=C/C2=C(C)C(=O)[C@@H](O)CC2(C)C)C(C)(C)C[C@H](O)C1=O [astaxanthin] | devoid of toxicity |  |  |
| Oc1ccc(/C=C/c2cc(O)cc(O)c2)cc1 [resveratrol, 5-[(E)-2-(4-hydroxyphenyl)ethenyl]benzene-1,3-diol] |  | capable of suppressing IL-1β-induced activation of NF-kB and PI-3K | negative effect on cell viability |
